Values of other authors as cited in patent US20150118313A1, “ENHANCED FOLIC ACID FLUORESCENT MATERIAL, MULTIFLUORESCENT POROUS COMPOSITIONS OF MATTER AND POTENTIAL APPLICATIONS THEREOF” (Nanologica AB, priority 2010, published 2015).
Entries after “also recorded” stand apart in the source; their conditions may differ.

What was measured:
[1] = weak acid, neutralized in the range of pH 5-7
[2] = aqueous solvent; solubility is dependent on pH

SMILES | pKa [1] | solubility in aqueous solution [2]
O=C(O)c1ccc(-c2c3nc(c(-c4ccc(C(=O)O)cc4)c4ccc([nH]4)c(-c4ccc(C(=O)O)cc4)c4nc(c(-c5ccc(C(=O)O)cc5)c5ccc2[nH]5)C=C4)C=C3)cc1 [TCPP, Meso-tetrakis (4-carboxyphenyl) porphyrin] | 6.6 | scarcely soluble; also recorded: poor solubility
Nc1nc2ncc(CNc3ccc(C(=O)N[C@@H](CCC(=O)O)C(=O)O)cc3)nc2c(=O)[nH]1 [folic acid] |  | poor solubility
